US20240317777A1, “NOVEL MACROCYCLIC AMINOPYRAZOLE COMPOUNDS AS CDK2 INHIBITORS” (Accutar Biotechnology Inc., priority 2023, published 2024)
Where two headings read alike, the source gives them in different places.

What was measured:
[1] = test system: CCNE1-amplified OVCAR3 cells; test: Cell growth inhibition of CCNE1-amplified OVCAR3 cells (CellTiter-Glo); format: cell-based; details: Homo sapiens, OVCAR-3, 144 h, 6 days
Procedure, shortened: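 Growth read-out was CellTiter-Glo luminescence, taken after 10 min at room temperature at the end of a 6-day compound exposure at 37 °C. Compounds were diluted from DMSO stocks across various concentrations.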

CDK9-CYCLIN T1 = CDK9-CYCLIN T1 (Homo sapiens, UniProt P50750); test: CDK protein kinase inhibition by ADP-Glo assay, CDK9-CYCLIN T1; format: biochemical; details: for IC50: read-out: CDK9-CYCLINT1, IC50; for CDK2 Fold selectivity against CDK9: fold selectivity for CDK2 over CDK9, recombinant CDK kinases
Procedure: (§1) CDK Protein Kinase Inhibition by ADP-Glo Assay
(§2) This ADP-Glo assay measures ADP formed from a kinase reaction and indirectly quantifies the phosphorylation of peptide substrates by the CDK/cyclin protein complexes. The typical assays were carried out in Nanosyn by combining kinase/cyclin complexes, substrates, compounds, and cofactors (ATP and Mg2+) in a well of a 384-well microtiter plate (Corning 3824) and incubating at 22° C. (Table 1). At the end of the incubation, the reaction is quenched, and conversion is detected by luminescence using the Promega ADP-Glo™ Kinase Assay kit (catalog #V9102).
(§3) Final assay buffer mixture contains: • 100 mM HEPES, pH 7.5 • 0.1% BSA • 0.01% Triton X-100 • 1 mM DTT • 5 mM MgCl2 • 10 μM Sodium Orthovanadate • 100 μM Beta-Glycerophosphate • 1000 μM Ultra Pure ATP (provided in the Promega ADP-Glo™ Kinase Assay kit) • 1% DMSO (from compound)
(§4) Upon completion, 5 μL of the ADP Glo reagent was added to each well and the plate was further incubated at room temperature for 45 minutes. 10 uL of the Kinase Detection Reagent was subsequently added to each well. After 10 minutes of incubation, the plate was read and analyzed on the BioTek Synergy microplate reader using BioTek Gen5 software.

CDK6-CYCLIN D3 = CDK6-CYCLIN D3 (Homo sapiens, UniProt Q00534); test: CDK protein kinase inhibition by ADP-Glo assay, CDK6-CYCLIN D3; format: biochemical; details: for IC50: read-out: CDK6-CYCLIND3, IC50; for CDK2 Fold selectivity against CDK6: fold selectivity for CDK2 over CDK6, recombinant CDK kinases
Procedure: as §1, §2, §3, §4

CDK2-CYCLIN E1 = CDK2-CYCLIN E1 (Homo sapiens, UniProt P24941); test: CDK protein kinase inhibition by ADP-Glo assay, CDK2-CYCLIN E1; format: biochemical; details: read-out: CDK2-CYCLINE, IC50
Procedure: as §1, §2, §3, §4

CCNE1-normal SKOV3 cells = test: Cell growth inhibition of CCNE1-normal SKOV3 cells (CellTiter-Glo); format: cell-based; details: Homo sapiens, SK-OV-3, 144 h, 6 days
Procedure, shortened: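 Growth was measured by CellTiter-Glo luminescence after 6 days' compound exposure at 37 °C. Cells were plated one day before dosing at 1000 per well in medium with 10% FBS, and compounds were diluted from DMSO stocks.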

CDK1-CYCLIN B = CDK1-CYCLIN B (Homo sapiens, UniProt P06493); test: CDK protein kinase inhibition by ADP-Glo assay, CDK1-CYCLIN B; format: biochemical; details: for IC50: read-out: CDK1-CYCLINB, IC50; for CDK2 Fold selectivity against CDK1: fold selectivity for CDK2 over CDK1, recombinant CDK kinases
Procedure: as §1, §2, §3, §4

CDK4-CYCLIN D1 = CDK4-CYCLIN D1 (Homo sapiens, UniProt P11802); test: CDK protein kinase inhibition by ADP-Glo assay, CDK4-CYCLIN D1; format: biochemical; details: for IC50: read-out: CDK4-CYCLIND1, IC50; for CDK2 Fold selectivity against CDK4: fold selectivity for CDK2 over CDK4, recombinant CDK kinases
Procedure: as §1, §2, §3, §4

[2] = test system: Phospho-Rb (Ser807/811) in OVCAR3 cells; test: Phospho-Rb expression inhibition in OVCAR3 cells quantified by In Cell Western; format: cell-based; details: Homo sapiens, OVCAR-3, 24 hours, read-out: OVCAR-3 pRb IC50
Procedure, shortened: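 In-cell western: after 24 h compound exposure at 37° C, fixed OVCAR3 cells co-stained for pRb Ser807/811 (800 nm channel) and total Rb (680 nm channel), imaged by LI-COR Odyssey.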

[3] = Table 35, recombinant CDK kinase
[4] = Table 37, recombinant CDK kinase

Sequence of CDK4-CYCLIN D1 (P11802 whole entry): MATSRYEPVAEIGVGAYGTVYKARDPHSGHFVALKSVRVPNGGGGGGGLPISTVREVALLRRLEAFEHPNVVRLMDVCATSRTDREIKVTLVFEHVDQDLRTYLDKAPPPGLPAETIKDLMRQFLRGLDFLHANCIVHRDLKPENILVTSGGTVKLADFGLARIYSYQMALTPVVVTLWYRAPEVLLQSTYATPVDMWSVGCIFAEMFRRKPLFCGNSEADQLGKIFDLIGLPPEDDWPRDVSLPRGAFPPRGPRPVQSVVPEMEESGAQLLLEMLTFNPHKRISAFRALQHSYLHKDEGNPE
Sequence of CDK4-CYCLIN D1 (P24385 whole entry partner): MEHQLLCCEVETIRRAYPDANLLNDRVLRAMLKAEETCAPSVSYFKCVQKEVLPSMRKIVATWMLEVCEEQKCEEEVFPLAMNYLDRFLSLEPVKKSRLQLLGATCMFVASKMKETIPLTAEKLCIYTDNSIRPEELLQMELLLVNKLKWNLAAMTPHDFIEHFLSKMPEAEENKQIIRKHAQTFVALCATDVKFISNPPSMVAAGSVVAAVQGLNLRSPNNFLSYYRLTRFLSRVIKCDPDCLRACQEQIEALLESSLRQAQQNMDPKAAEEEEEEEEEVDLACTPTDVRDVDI
Sequence of CDK9-CYCLIN T1 (P50750 whole entry): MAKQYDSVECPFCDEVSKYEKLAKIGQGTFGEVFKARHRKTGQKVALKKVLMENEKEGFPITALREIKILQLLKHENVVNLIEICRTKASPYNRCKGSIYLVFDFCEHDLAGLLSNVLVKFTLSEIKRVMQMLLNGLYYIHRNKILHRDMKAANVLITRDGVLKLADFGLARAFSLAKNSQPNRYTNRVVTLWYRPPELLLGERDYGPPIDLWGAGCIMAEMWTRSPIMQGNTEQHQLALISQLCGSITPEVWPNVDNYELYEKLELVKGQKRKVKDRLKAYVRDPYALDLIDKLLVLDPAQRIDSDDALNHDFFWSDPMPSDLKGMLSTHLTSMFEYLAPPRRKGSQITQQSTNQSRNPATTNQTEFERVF
Sequence of CDK9-CYCLIN T1 (O60563 whole entry partner): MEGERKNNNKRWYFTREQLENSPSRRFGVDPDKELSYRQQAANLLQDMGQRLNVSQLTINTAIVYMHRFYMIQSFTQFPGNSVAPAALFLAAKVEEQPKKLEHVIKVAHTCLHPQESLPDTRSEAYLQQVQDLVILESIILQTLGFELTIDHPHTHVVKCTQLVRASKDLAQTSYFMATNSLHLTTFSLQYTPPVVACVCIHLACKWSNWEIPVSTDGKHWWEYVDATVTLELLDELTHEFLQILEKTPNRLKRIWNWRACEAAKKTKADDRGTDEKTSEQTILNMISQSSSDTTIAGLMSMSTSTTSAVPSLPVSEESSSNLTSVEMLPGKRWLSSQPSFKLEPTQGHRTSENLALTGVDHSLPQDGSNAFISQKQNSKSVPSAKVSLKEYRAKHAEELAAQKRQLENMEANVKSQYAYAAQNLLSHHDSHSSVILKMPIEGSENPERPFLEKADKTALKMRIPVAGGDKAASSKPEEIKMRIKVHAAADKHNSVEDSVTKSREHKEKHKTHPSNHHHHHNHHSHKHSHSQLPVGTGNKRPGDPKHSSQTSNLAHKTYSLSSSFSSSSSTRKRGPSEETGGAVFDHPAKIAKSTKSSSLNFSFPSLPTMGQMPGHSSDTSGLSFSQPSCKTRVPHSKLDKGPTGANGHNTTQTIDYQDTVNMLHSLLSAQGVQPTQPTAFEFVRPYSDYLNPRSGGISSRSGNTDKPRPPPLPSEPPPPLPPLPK
Sequence of CDK6-CYCLIN D3 (Q00534 whole entry): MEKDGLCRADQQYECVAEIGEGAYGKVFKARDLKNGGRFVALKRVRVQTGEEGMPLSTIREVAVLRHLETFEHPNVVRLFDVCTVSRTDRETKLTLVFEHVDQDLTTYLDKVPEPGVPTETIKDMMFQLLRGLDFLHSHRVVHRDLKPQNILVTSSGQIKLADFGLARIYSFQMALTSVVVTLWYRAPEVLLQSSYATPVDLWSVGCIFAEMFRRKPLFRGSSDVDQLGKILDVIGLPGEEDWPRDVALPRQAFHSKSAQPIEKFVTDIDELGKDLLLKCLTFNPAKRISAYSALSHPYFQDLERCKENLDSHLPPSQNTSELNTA
Sequence of CDK6-CYCLIN D3 (P30281 whole entry partner): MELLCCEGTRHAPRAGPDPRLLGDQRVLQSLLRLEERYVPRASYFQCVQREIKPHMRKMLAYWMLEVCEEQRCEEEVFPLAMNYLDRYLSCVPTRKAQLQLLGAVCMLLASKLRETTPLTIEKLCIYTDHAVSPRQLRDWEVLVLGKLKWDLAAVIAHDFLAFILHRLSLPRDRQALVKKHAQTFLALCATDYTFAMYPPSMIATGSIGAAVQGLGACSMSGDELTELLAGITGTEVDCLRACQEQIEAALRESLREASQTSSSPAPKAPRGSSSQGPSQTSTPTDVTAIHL
Sequence of CDK1-CYCLIN B (P06493 whole entry): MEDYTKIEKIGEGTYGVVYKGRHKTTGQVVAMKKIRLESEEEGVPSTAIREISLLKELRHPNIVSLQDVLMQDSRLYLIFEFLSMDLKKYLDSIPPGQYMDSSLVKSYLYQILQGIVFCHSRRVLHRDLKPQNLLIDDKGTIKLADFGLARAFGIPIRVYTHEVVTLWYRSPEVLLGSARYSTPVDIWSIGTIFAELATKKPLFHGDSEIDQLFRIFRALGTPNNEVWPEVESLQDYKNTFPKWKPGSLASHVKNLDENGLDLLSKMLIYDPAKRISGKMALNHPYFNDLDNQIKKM
Sequence of CDK1-CYCLIN B (P14635 whole entry partner): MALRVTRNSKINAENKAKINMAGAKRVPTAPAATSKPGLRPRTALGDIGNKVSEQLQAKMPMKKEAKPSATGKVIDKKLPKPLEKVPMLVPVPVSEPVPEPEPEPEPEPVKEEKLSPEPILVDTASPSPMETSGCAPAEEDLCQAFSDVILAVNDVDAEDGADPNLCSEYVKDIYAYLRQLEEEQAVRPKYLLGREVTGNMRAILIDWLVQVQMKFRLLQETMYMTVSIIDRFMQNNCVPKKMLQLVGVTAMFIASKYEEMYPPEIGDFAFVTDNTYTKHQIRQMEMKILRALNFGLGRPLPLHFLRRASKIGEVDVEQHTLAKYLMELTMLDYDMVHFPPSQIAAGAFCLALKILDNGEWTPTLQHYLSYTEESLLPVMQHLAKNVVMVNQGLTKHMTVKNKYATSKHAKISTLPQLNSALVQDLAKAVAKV

O=C1N[C@H]2C[C@@H](CC(F)(F)c3cc(ccn3)Nc3cc(n[nH]3)[C@H]3CC[C@H](C3)O1)C2 (single isomer, unassigned) [Compound 170, (1^1S,1^3R,7^1S,7^3R,Z)-5,5-difluoro-2^1H-10-oxa-3,8-diaza-4(4,2)-pyridina-2(3,5)-pyrazola-1(1,3)-cyclopentana-7(1,3)-cyclobutanacyclodecaphan-9-one]
IC50 [1]: 2 to 10 nM
IC50 (CDK9-CYCLIN T1; ADP-Glo, 1000 μM ATP, Table 31): 10 to 50 nM
CDK2 Fold selectivity, CDK9 (CDK9-CYCLIN T1; CDK2 versus CDK9, Table 32): E (E, <20)
IC50 (CDK6-CYCLIN D3; ADP-Glo, 1000 μM ATP, Table 31): 10 to 50 nM
CDK2 Fold selectivity, CDK6 (CDK6-CYCLIN D3; CDK2 versus CDK6, Table 32): E (E, <20)
IC50 (CDK2-CYCLIN E1; ADP-Glo, 1000 μM ATP, Table 31): ≤ 10 nM
IC50 (CCNE1-normal SKOV3 cells): 50 to 250 nM
IC50 (CDK1-CYCLIN B; ADP-Glo, 1000 μM ATP, Table 31): ≤ 10 nM
CDK2 Fold selectivity, CDK1 (CDK1-CYCLIN B; CDK2 versus CDK1, Table 32): E (E, <20)
IC50 (CDK4-CYCLIN D1; ADP-Glo, 1000 μM ATP, Table 31): 10 to 50 nM
CDK2 Fold selectivity, CDK4 (CDK4-CYCLIN D1; CDK2 versus CDK4, Table 32): E (E, <20)
IC50 [2]: 2 to 10 nM

O=C1NCCCCCc2cc(ccn2)Nc2cc([nH]n2)[C@H]2CC[C@H](C2)O1 [Compound 4, (1^1S,1^3R,Z)-2^1H-12-oxa-3,10-diaza-4(4,2)-pyridina-2(3,5)-pyrazola-1(1,3)-cyclopentanacyclododecaphan-11-one]
IC50 [1]: 50 to 250 nM
IC50 (CDK9-CYCLIN T1; ADP-Glo, 1000 μM ATP, Table 7): 100 to 500 nM
CDK2 Fold Sensitivity, CDK9 (CDK9-CYCLIN T1; CDK2 versus CDK9, Table 8): D (D, >20 and ≤50)
IC50 (CDK6-CYCLIN D3; ADP-Glo, 1000 μM ATP, Table 7): 50 to 100 nM
CDK2 Fold Sensitivity, CDK6 (CDK6-CYCLIN D3; CDK2 versus CDK6, Table 8): E (E, <20)
IC50 (CDK2-CYCLIN E1; ADP-Glo, 1000 μM ATP, Table 7): ≤ 10 nM
IC50 (CCNE1-normal SKOV3 cells): 250 to 1250 nM
IC50 (CDK1-CYCLIN B; ADP-Glo, 1000 μM ATP, Table 7): 100 to 500 nM
CDK2 fold selectivity over CDK1 (CDK1-CYCLIN B; CDK2 versus CDK1, Table 8): D (D, >20 and ≤50)
IC50 (CDK4-CYCLIN D1; ADP-Glo, 1000 μM ATP, Table 7): 50 to 100 nM
CDK2 Fold Sensitivity, CDK4 (CDK4-CYCLIN D1; CDK2 versus CDK4, Table 8): E (E, <20)
IC50 [2]: 10 to 50 nM

[2H]C1([2H])Oc2cc(ccn2)Nc2[nH]nc(c2F)[C@H]2CC[C@H](C2)OC(=O)N[C@H]2C[C@H]1C2 [Compound 221, (1^1S,1^3R,7^1R,7^3S,E)-24-fluoro-2^1H-5,10-dioxa-3,8-diaza-4(4,2)-pyridina-2(3,5)-pyrazola-1(1,3)-cyclopentana-7(1,3)-cyclobutanacyclodecaphan-9-one-6,6-d2]
IC50 [1]: 10 to 50 nM
IC50 (CDK9-CYCLIN T1; [3]): > 500 nM
CDK2 Fold selectivity against CDK9 (CDK9-CYCLIN T1; Table 36): B (B, >100 and ≤500)
IC50 (CDK6-CYCLIN D3; [3]): 100 to 500 nM
CDK2 Fold selectivity against CDK6 (CDK6-CYCLIN D3; Table 36): C (C, >50 and ≤100)
IC50 (CDK2-CYCLIN E1; [3]): ≤ 10 nM
IC50 (CDK1-CYCLIN B; [3]): 50 to 100 nM
CDK2 Fold selectivity against CDK1 (CDK1-CYCLIN B; Table 36): E (E, <20)
IC50 (CDK4-CYCLIN D1; [3]): 100 to 500 nM
CDK2 Fold selectivity against CDK4 (CDK4-CYCLIN D1; Table 36): C (C, >50 and ≤100)
IC50 [2]: 10 to 50 nM

O=C1NC2CC(COc3cc(ccn3)Nc3cc(n[nH]3)C3C[C@@H](F)[C@H](C3)O1)C2 [Compound 229, (1^1R,1^3S,1^4R,7^1S,7^3R,Z)-1^4-fluoro-2^1H-5,10-dioxa-3,8-diaza-4(4,2)-pyridina-2(3,5)-pyrazola-1(1,3)-cyclopentana-7(1,3)-cyclobutanacyclodecaphan-9-one]
IC50 [1]: 10 to 50 nM
IC50 (CDK9-CYCLIN T1; [4]): 100 to 500 nM
CDK2 Fold selectivity against CDK9 (CDK9-CYCLIN T1; Table 38): C (C, >50 and ≤100)
IC50 (CDK6-CYCLIN D3; [4]): 10 to 50 nM
CDK2 Fold selectivity against CDK6 (CDK6-CYCLIN D3; Table 38): E (E, <20)
IC50 (CDK2-CYCLIN E1; [4]): ≤ 10 nM
IC50 (CDK1-CYCLIN B; [4]): 10 to 50 nM
CDK2 Fold selectivity against CDK1 (CDK1-CYCLIN B; Table 38): E (E, <20)
IC50 (CDK4-CYCLIN D1; [4]): 10 to 50 nM
CDK2 Fold selectivity against CDK4 (CDK4-CYCLIN D1; Table 38): E (E, <20)
IC50 [2]: 2 to 10 nM

O=C1NC2CC(COc3cc(ccn3)Nc3cc(n[nH]3)C3C[C@H](F)[C@@H](C3)O1)C2 [Compound 230, (1^1S,1^3R,1^4S,7^1R,7^3S,Z)-1^4-fluoro-2^1H-5,10-dioxa-3,8-diaza-4(4,2)-pyridina-2(3,5)-pyrazola-1(1,3)-cyclopentana-7(1,3)-cyclobutanacyclodecaphan-9-one]
IC50 [1]: 10 to 50 nM
IC50 (CDK9-CYCLIN T1; [4]): 10 to 50 nM
CDK2 Fold selectivity against CDK9 (CDK9-CYCLIN T1; Table 38): E (E, <20)
IC50 (CDK6-CYCLIN D3; [4]): 10 to 50 nM
CDK2 Fold selectivity against CDK6 (CDK6-CYCLIN D3; Table 38): E (E, <20)
IC50 (CDK2-CYCLIN E1; [4]): ≤ 10 nM
IC50 (CDK1-CYCLIN B; [4]): 10 to 50 nM
CDK2 Fold selectivity against CDK1 (CDK1-CYCLIN B; Table 38): E (E, <20)
IC50 (CDK4-CYCLIN D1; [4]): 10 to 50 nM
CDK2 Fold selectivity against CDK4 (CDK4-CYCLIN D1; Table 38): E (E, <20)
IC50 [2]: 10 to 50 nM

O=C1NC2CC(COc3cc(ccn3)Nc3[nH]nc(c3F)C3C[C@@H](F)[C@H](C3)O1)C2 [Compound 231, (1^1R,1^3S,1^4R,7^1S,7^3R,E)-1^4,2^4-difluoro-2^1H-5,10-dioxa-3,8-diaza-4(4,2)-pyridina-2(3,5)-pyrazola-1(1,3)-cyclopentana-7(1,3)-cyclobutanacyclodecaphan-9-one]
IC50 [1]: 10 to 50 nM
IC50 (CDK9-CYCLIN T1; [4]): > 500 nM
CDK2 Fold selectivity against CDK9 (CDK9-CYCLIN T1; Table 38): B (B, >100 and ≤500)
IC50 (CDK6-CYCLIN D3; [4]): 100 to 500 nM
CDK2 Fold selectivity against CDK6 (CDK6-CYCLIN D3; Table 38): B (B, >100 and ≤500)
IC50 (CDK2-CYCLIN E1; [4]): ≤ 10 nM
IC50 (CDK1-CYCLIN B; [4]): 50 to 100 nM
CDK2 Fold selectivity against CDK1 (CDK1-CYCLIN B; Table 38): E (E, <20)
IC50 (CDK4-CYCLIN D1; [4]): 100 to 500 nM
CDK2 Fold selectivity against CDK4 (CDK4-CYCLIN D1; Table 38): B (B, >100 and ≤500)
IC50 [2]: 10 to 50 nM

O=C1NC2CC(COc3cc(ccn3)Nc3[nH]nc(c3F)C3C[C@H](F)[C@@H](C3)O1)C2 [Compound 232, (1^1S,1^3R,1^4S,7^1R,7^3S,E)-1^4,2^4-difluoro-2^1H-5,10-dioxa-3,8-diaza-4(4,2)-pyridina-2(3,5)-pyrazola-1(1,3)-cyclopentana-7(1,3)-cyclobutanacyclodecaphan-9-one]
IC50 [1]: 50 to 250 nM
IC50 (CDK9-CYCLIN T1; [4]): 100 to 500 nM
CDK2 Fold selectivity against CDK9 (CDK9-CYCLIN T1; Table 38): E (E, <20)
IC50 (CDK6-CYCLIN D3; [4]): 100 to 500 nM
CDK2 Fold selectivity against CDK6 (CDK6-CYCLIN D3; Table 38): E (E, <20)
IC50 (CDK2-CYCLIN E1; [4]): 10 to 50 nM
IC50 (CDK1-CYCLIN B; [4]): 100 to 500 nM
CDK2 Fold selectivity against CDK1 (CDK1-CYCLIN B; Table 38): E (E, <20)
IC50 (CDK4-CYCLIN D1; [4]): 50 to 100 nM
CDK2 Fold selectivity against CDK4 (CDK4-CYCLIN D1; Table 38): E (E, <20)
IC50 [2]: 10 to 50 nM
